Experimental data reported in patent US12357652B2, “Formulations of phosphoramidate derivatives of nucleoside drugs” (priority 2015, dated 2025).

Tests used:
[1] = Stability of NUC-3373 aqueous infusion solution in 250 ml 0.9% saline bags; type: physicochemical
Experimental: The stability of the aqueous infusion solution was also evaluated using three different doses of NUC-3373 (1,000 mg, 2,000 mg and 3,000 mg) diluted in 250 ml 0.9% saline bags at two storage conditions (5° C. and 20° C.).

[2] = Alternative aqueous infusion solutions of NUC-3373 (osmolarity, stability); type: physicochemical
cancer = assay: Clinical trial of NUC-3373; type: in vivo; conditions: infusion solutions prepared as in Example 3; early results
Source text: In a clinical trial of NUC-3373, this administration methodology has allowed NUC-3373 to be successfully administered via a CVAD.

[3] = 2,000 mg NUC-3373 in 250 ml 0.9% saline infusion bag, 24 hours, 5° C.
[4] = 2,000 mg NUC-3373 in 250 ml 0.9% saline infusion bag, 24 hours, 20° C.
[5] = 2,000 mg NUC-3373 in 250 ml 0.9% saline infusion bag, 48 hours, 5° C.
[6] = 2,000 mg NUC-3373 in 250 ml 0.9% saline infusion bag, 48 hours, 20° C.
[7] = 3,000 mg NUC-3373 in 250 ml 0.9% saline infusion bag, 0 hours, 5° C.
[8] = 3,000 mg NUC-3373 in 250 ml 0.9% saline infusion bag, 0 hours, 20° C.
[9] = 3,000 mg NUC-3373 in 250 ml 0.9% saline infusion bag, 8 hours, 5° C.
[10] = 3,000 mg NUC-3373 in 250 ml 0.9% saline infusion bag, 8 hours, 20° C.
[11] = 3,000 mg NUC-3373 in 250 ml 0.9% saline infusion bag, 24 hours, 5° C.
[12] = 3,000 mg NUC-3373 in 250 ml 0.9% saline infusion bag, 24 hours, 20° C.
[13] = 3,000 mg NUC-3373 in 250 ml 0.9% saline infusion bag, 48 hours, 5° C.
[14] = 3,000 mg NUC-3373 in 250 ml 0.9% saline infusion bag, 48 hours, 20° C.

With `C[C@H](NP(=O)(OC[C@H]1O[C@@H](n2cc(F)c(=O)[nH]c2=O)CC1O)Oc1cccc2ccccc12)C(=O)OCc1ccccc1` (stereo partly drawn) [NUC-3373, 5-fluoro-2′-deoxyuridine-5′-O-[1-naphthyl (benzoxy-L-alaninyl)] phosphate] the “Total NUC-3373” value [1, 3] was 1865 mg, the pH [1, 3] was 5.5 and the “Assay content NUC-3373” value [1, 4] was 7.2 mg/mL. The Osmolarity [1, 4] was 639 mosm/L H20, the Purity [1, 4] was 96.1 % area and the “Total NUC-3373” value [1, 4] was 1946 mg. For the same compound, the pH [1, 4] was 5.5, the “Assay content NUC-3373” value [1, 5] was 7.0 mg/mL and the Osmolarity [1, 5] was 635 mosm/L H20. The Purity [1, 5] was 96.1 % area, the “Total NUC-3373” value [1, 5] was 1892 mg and the pH [1, 5] was 5.4. The “Assay content NUC-3373” value [1, 6] was 7.1 mg/mL, the Osmolarity [1, 6] was 632 mosm/L H20 and the Purity [1, 6] was 96.1 % area. The “Total NUC-3373” value [1, 6] was 1919 mg, the pH [1, 6] was 5.4 and the “Assay content NUC-3373” value [1, 7] was 10.2 mg/mL. For the same compound, the Osmolarity [1, 7] was 831 mosm/L H20, the Purity [1, 7] was 96.1 % area and the “Total NUC-3373” value [1, 7] was 2857 mg. For the same compound, the pH [1, 7] was 5.5, the “Assay content NUC-3373” value [1, 8] was 10.4 mg/mL and the Osmolarity [1, 8] was 818 mosm/L H20. The Purity [1, 8] was 96.1 % area, the “Total NUC-3373” value [1, 8] was 2913 mg and the pH [1, 8] was 5.5. The “Assay content NUC-3373” value [1, 9] was 10.4 mg/mL, the Osmolarity [1, 9] was 823 mosm/L H20 and the Purity [1, 9] was 96.2 % area. For the same compound, the “Total NUC-3373” value [1, 9] was 2913 mg, the pH [1, 9] was 5.5 and the “Assay content NUC-3373” value [1, 10] was 10.5 mg/mL. The Osmolarity [1, 10] was 812 mosm/L H20, the Purity [1, 10] was 96.1 % area and the “Total NUC-3373” value [1, 10] was 2941 mg. The pH [1, 10] was 5.5, the “Assay content NUC-3373” value [1, 11] was 10.1 mg/mL and the Osmolarity [1, 11] was 825 mosm/L H20. The Purity [1, 11] was 96.1 % area, the “Total NUC-3373” value [1, 11] was 2829 mg and the pH [1, 11] was 5.5. The “Assay content NUC-3373” value [1, 12] was 10.4 mg/mL, the Osmolarity [1, 12] was 817 mosm/L H20 and the Purity [1, 12] was 96.1 % area. For the same compound, the “Total NUC-3373” value [1, 12] was 2913 mg, the pH [1, 12] was 5.5 and the “Assay content NUC-3373” value [1, 13] was 10.0 mg/mL. The Osmolarity [1, 13] was 821 mosm/L H20, the Purity [1, 13] was 96.2 % area and the “Total NUC-3373” value [1, 13] was 2801 mg. For the same compound, the pH [1, 13] was 5.6, the “Assay content NUC-3373” value [1, 14] was 10.1 mg/mL and the Osmolarity [1, 14] was 812 mosm/L H20. The Purity [1, 14] was 96.1 % area, the “Total NUC-3373” value [1, 14] was 2829 mg and the pH [1, 14] was 5.4. The Stability ([1]; aqueous infusion solutions at all dose strengths (1,000 mg, 2,000 mg, 3,000 mg in 250 ml 0.9% saline), up to 48 hours at 5° C. and 20° C.) was “stable”, the Osmolarity ([2]; high dose (3,000 mg) NUC-3373 in 500 ml 0.9% saline infusion bag) was 524 mosm/1 and the Osmolarity ([2]; high dose NUC-3373 (10 mg/ml) using 0.45% saline) was 715 mosm/l H2O. For the same compound, the Osmolarity ([2]; high dose NUC-3373 (10 mg/ml) using WFI) was 557 mosm/l H2O, the Osmolarity ([2]; high dose NUC-3373 (10 mg/ml; 3,000 mg) in 250 ml 0.9% saline) was 812 mosm/1 and the “Efficacy in treating cancer” value (cancer) was “some efficacy in treating cancer”.
